Assay results taken from patent US10513521B2, “Compositions and methods for inhibiting BMP” (The Brigham and Women's Hospital, Inc., priority 2014, dated 2019).
Values joined by “and” are separate entries in the source; they are usually repeats but may differ in a detail not shown here. Equal values may be shown once.

Columns and labels:
[1] = molecular target: ALK3 (Homo sapiens, UniProt P36894); assay: TR-FRET enzymatic ALK kinase assay, ALK3
Experimental: (§1) Briefly, the ALKs enzymatic assay was initiated by dispense 2.5 μl enzyme in 1× kinase reaction buffer. The assay plate was then added with compounds followed by incubation at room temperature for 10 minutes. Then 2.5 μl/well substrate was added.

[2] = molecular target: ALK1 (Homo sapiens, UniProt P37023); assay: TR-FRET enzymatic ALK kinase assay, ALK1
Sequence of ALK1 (Homo sapiens, UniProt P37023) (P37023 22-503): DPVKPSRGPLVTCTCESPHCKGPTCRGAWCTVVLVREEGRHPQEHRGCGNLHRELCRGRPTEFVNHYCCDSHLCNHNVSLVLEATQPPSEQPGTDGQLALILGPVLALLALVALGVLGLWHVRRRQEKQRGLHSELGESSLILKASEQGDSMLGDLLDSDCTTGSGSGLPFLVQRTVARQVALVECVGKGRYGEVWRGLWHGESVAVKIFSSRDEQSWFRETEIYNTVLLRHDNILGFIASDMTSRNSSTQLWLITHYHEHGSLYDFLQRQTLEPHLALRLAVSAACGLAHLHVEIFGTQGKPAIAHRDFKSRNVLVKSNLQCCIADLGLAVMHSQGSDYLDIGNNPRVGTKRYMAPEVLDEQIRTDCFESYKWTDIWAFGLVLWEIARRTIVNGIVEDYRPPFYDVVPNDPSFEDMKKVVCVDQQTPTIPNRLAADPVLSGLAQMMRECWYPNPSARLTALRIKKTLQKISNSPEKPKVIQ
Experimental: as §1

[3] = molecular target: T1, ALK1 (Bos taurus, UniProt A4FUX2); assay: In-cell Western ALK1 assay (BAOEC cells, BMP9 as agonist); type: cell-based, Bovine; conditions: read-out: BMP9 ICW
T1 construct: The BAOEC cell line was employed for the measurement of ALK1 activity using BMP9 as the agonist; host or cells: BAOEC (bovine aortic endothelial cells)
T1 sequence (A4FUX2 23-503): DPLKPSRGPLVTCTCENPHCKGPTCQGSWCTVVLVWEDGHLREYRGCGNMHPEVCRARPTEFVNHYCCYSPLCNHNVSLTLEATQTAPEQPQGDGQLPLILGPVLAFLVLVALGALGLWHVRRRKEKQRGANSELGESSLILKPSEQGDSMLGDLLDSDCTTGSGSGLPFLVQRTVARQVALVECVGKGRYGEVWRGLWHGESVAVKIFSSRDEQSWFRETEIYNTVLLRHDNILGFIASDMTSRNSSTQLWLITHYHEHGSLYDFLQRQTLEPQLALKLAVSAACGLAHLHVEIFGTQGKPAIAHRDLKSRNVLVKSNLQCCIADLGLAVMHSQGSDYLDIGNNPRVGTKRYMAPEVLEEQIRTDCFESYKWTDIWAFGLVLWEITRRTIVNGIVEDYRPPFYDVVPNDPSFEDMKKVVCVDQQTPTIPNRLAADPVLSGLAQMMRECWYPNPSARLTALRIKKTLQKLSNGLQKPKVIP
From the text: 3. In-Cell Western ALK1 and ALK2 Assays in 384-Well Plate Format.
We also optimized cell-based In-cell Western assays for measurements of ALK1 and ALK2 activities that were used to determine compound activities in these two kinases. The cell lines and agonists used were same as described in above cell-based HTRF ALK1 and ALK2 assays. The initial cell plating and compound treatment were also same. The main difference is the detection of phosphorylation status of SMAD1. In t-cell Western assay, the cells were fixed and phosphorylation status of SMAD1 was detected by the ELISA instead of using the HTRF assay kit in above assay.
C2C12 cells and RPMI 1640 medium were obtained from ATCC (Manassas, Va.) and Bovine Aortic endothelial Cells (BAOEC) and epithelial defined growth medium were purchased from Genlantis (San Deigo, Calif.). HyClone Fetal Bovine Serum was obtained from GE healthcare life sciences (Logan, Utah). BMP6 and BMP9 were purchased from R&D System (R&D). Anti-P-SMAD 1/5/8 rabbit mAb and anti-rabbit IgG, HRP-Linked antibody were purchased from Cell Signaling Technology (Danvers, Mass.). BioFX Chemiluminescent Ultra-Sensitive HRP Microwell Substrate ECL Reagent was obtained from SurModics (Edina, Minn.). The compound plates and the white solid MB assay plates were from Greiner Bio-one (Monroe, N.C.).
Similarly as described in above HTRF cell-based assay, this assay was performed in 384 well plate format. C2C12 were grown in T225 flasks were sterilely washed with 1×PBS pre-starved with medium containing 0.1% FBS for 20 hours. Pre-starved cells were then plated in 384 well plate in the starvation medium (containing in 0.1% FBS). After 4 hours, compound dilutions in DMSO were added to the assay plate and incubated for 30 minutes. The assay plate was then added with BMP6 for C2C12 cells or BMP9 for BAOEC cells and incubated for 30 minutes.
Cells were fixed with 50 ul ice-cold methanol and incubated for 15 min after removing the supernatant. The methanol was removed and filled with 0.5% glutaraldehyde and incubated at room temperature for 15 min. The cells were washed in the plate washer with PBS and blocked with 2% BSA in PBS for 1 h at room temperature on the rotator. After removing the blocking reagent, the cells were incubated with the anti-p-SMAD1 antibody in 2% BSA in PBS for overnight at 4° C. on rotator. The cells were washed with PBS in the plate washer and incubated with HRP conjugated second antibody in 2% BSA in PBS for 1 hour at room temperature. After a cell wash with PBS, ECL detection reagent was added and the plate was read in the luminesce mode in the ViewLux plate reader.

[4] = molecular target: T2, ALK2 (Homo sapiens, UniProt Q04771); assay: TR-FRET enzymatic ALK kinase assay, ALK2
T2 sequence (Q04771 21-509): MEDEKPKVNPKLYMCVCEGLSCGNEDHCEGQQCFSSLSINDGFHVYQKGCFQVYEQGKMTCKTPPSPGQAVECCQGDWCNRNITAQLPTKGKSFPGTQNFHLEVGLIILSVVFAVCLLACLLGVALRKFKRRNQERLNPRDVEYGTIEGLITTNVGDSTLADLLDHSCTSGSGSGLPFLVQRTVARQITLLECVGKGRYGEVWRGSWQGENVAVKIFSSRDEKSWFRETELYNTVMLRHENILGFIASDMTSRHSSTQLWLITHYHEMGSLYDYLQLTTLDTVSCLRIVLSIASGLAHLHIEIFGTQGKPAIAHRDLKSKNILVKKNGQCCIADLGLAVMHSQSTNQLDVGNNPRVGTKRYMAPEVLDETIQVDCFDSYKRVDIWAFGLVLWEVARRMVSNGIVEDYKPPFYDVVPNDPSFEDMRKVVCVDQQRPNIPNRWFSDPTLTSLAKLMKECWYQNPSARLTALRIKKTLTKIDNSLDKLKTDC
Experimental: as §1

[5] = molecular target: ALK6 (Homo sapiens, UniProt O00238); assay: TR-FRET enzymatic ALK kinase assay, ALK6
Sequence of ALK6 (O00238 14-502): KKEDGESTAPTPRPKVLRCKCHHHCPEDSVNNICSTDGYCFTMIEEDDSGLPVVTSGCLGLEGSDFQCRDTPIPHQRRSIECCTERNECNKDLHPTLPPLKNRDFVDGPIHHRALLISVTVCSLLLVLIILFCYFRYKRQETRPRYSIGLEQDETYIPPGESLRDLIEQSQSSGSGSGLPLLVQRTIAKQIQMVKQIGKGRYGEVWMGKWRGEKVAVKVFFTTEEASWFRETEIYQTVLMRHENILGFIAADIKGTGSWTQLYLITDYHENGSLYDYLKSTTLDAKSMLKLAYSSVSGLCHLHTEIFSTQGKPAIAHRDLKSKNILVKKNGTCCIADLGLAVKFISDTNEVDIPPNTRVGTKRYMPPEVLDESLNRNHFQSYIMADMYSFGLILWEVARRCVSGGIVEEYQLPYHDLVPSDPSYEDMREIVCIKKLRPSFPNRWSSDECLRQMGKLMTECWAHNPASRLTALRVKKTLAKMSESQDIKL
Experimental: as §1

[6] = molecular target: T3, ALK4 (Homo sapiens, UniProt P36896); assay: TR-FRET enzymatic ALK kinase assay, ALK4
T3 sequence (P36896 24-505): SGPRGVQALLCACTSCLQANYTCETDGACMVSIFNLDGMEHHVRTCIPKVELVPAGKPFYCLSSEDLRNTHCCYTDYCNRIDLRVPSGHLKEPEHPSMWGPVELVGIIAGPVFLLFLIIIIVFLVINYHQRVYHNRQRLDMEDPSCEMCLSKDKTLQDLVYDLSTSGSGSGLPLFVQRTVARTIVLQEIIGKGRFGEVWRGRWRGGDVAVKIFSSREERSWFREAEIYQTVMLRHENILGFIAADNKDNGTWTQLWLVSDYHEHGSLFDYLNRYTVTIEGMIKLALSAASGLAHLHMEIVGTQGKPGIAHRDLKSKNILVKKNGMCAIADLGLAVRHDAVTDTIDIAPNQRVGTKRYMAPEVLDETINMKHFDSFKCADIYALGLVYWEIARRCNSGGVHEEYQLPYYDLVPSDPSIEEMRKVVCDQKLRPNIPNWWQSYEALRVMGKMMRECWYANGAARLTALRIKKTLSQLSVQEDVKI
Experimental: as §1

Sequence of ALK3 (P36894 24-532): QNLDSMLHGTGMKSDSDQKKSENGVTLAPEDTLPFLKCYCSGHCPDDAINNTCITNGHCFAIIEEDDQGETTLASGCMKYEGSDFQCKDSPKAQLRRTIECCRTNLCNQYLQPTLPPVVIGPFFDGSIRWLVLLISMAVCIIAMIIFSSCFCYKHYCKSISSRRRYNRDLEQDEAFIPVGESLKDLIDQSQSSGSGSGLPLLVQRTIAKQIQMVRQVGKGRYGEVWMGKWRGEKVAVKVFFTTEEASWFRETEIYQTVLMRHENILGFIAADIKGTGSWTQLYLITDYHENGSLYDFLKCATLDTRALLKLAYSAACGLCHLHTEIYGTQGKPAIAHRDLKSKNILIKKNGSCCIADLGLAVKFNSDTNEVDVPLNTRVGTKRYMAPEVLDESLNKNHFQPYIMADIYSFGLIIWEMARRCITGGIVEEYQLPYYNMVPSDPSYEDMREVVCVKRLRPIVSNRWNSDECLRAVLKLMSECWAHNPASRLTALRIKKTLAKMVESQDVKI

Row | SMILES | IC50 [1] | IC50 [2] | IC50 [3] | IC50 [4] | IC50 [5] | IC50 [6]
1 | N/C(=N/O)c1ccc(-c2cnn3cc(-c4ccc(N5CCNCC5)cc4)cnc23)c2ccccc12 [Compound 15, N′-hydroxy-4-(6-(4-(piperazin-1-yl)phenyl)pyrazolo[1,5-a]pyrimidin-3-yl)-1-naphthimidamide] | 1340 nM | 1480 nM | 1500 nM | 43 nM | 12800 nM | 30400 nM
2 | NS(=O)(=O)c1ccc(-c2cnn3cc(-c4ccc(CCN5CCCCC5)cc4)cnc23)c2ccccc12 [Compound 54, 4-(6-(4-(2-(piperidin-1-yl)ethyl)phenyl)pyrazolo[1,5-a]pyrimidin-3-yl)naphthalene-1-sulfonamide] | > 10000 nM | 380 nM | – | 94 nM | > 10000 nM | > 10000 nM
3 | C[C@@H]1CNC[C@H](C)N1c1ccc(-c2cnc3c(-c4cccc(S(C)(=O)=O)c4)cnn3c2)cc1 [Compound 82, 6-(4-((2R,6S)-2,6-dimethylpiperazin-1-yl)phenyl)-3-(3-(methylsulfonyl)phenyl)pyrazolo[1,5-a]pyrimidine] | 540 nM | 30 nM | 1.5 µM (2×) and 1 µM and 1.3 µM and 1.8 µM and 360 nM and 960 nM and 2 µM | 12 nM | 7900 nM | 3200 nM
4 | C[S+](=O)([O-])c1cccc(-c2cnn3cc(-c4ccc(OC5(CN6CCCCC6)COC5)cc4)cnc23)c1 [Compound 93, 3-(3-(methylsulfonyl)phenyl)-6-(4-((3-(piperidin-1-ylmethyl)oxetan-3-yl)oxy)phenyl)pyrazolo[1,5-a]pyrimidine] | 1500 nM | 100 nM | 3300 nM and 1400 nM and 3000 nM and 3800 nM and 3600 nM and 1200 nM and 1900 nM | 29 nM | 2900 nM | > 10000 nM
5 | C[S+](=O)([O-])c1cccc(-c2cnn3cc(-c4ccc(OCCN5CCCCC5)cc4)cnc23)c1 [Compound 109] | 1500 nM | 390 nM | – | 95 nM | > 10000 nM | > 10000 nM
6 | CC(C)S(=O)(=O)c1cccc(-c2cnn3cc(-c4ccc(CCN5CCCCC5)cc4)cnc23)c1 [Compound 113, 3-(3-(isopropylsulfonyl)phenyl)-6-(4-(2-(piperidin-1-yl)ethyl)phenyl)pyrazolo[1,5-a]pyrimidine] | 4600 nM | 500 nM | – | 94 nM | 9200 nM | > 10000 nM
7 | CC(C)S(=O)(=O)c1cccc(-c2cnn3cc(-c4ccc(N5[C@H](C)CNC[C@@H]5C)cc4)cnc23)c1 [Compound 114, 6-(4-((2R,6S)-2,6-dimethylpiperazin-1-yl)phenyl)-3-(3-(isopropylsulfonyl)phenyl)pyrazolo[1,5-a]pyrimidine] | 1100 nM | 67 nM | – | 32 nM | 6300 nM | 4100 nM
8 | CS(=O)(=O)c1cccc(-c2cnn3cc(-c4ccc(CN5CCCCC5)cc4)cnc23)c1 [Compound 123, 3-(3-(methylsulfonyl)phenyl)-6-(4-(piperidin-1-ylmethyl)phenyl)pyrazolo[1,5-a]pyrimidine] | > 10000 nM | 210 nM | – | 56 nM | > 10000 nM | > 10000 nM
9 | CC(O)c1cccc(-c2cnn3cc(-c4ccc(OC5(CN6CCCCC6)CC5)cc4)cnc23)c1 (stereo not drawn) [Compound 143, 1-(3-(6-(4-(1-(piperidin-1-ylmethyl)cyclopropoxy)phenyl)pyrazolo[1,5-a]pyrimidin-3-yl)phenyl)ethanol] | 1400 nM | 330 nM | – | 47 nM | 9600 nM | > 10000 nM

Other lines, results leading:

Row | IC50 [1] | IC50 [2] | IC50 [3] | IC50 [4] | IC50 [5] | IC50 [6] | SMILES
10 | 520 nM | 57 nM | 1400 nM and 1200 nM and 1500 nM and 1800 nM and 2600 nM and 690 nM and 770 nM and 1600 nM | 12 nM | 5400 nM | 4400 nM | CC(O)c1cccc(-c2cnn3cc(-c4ccc(N5[C@H](C)CNC[C@@H]5C)cc4)cnc23)c1 (stereo partly drawn) [Compound 83, 1-(3-(6-(4-((2R,6S)-2,6-dimethylpiperazin-1-yl)phenyl)pyrazolo[5-a]pyrimidin-3-yl)phenyl)ethanol]
11 | 510 nM | 34 nM | 1100 nM and 360 nM and 860 nM | 14 nM | 7400 nM | 4800 nM | CC[S+](=O)([O-])c1cccc(-c2cnn3cc(-c4ccc(N5[C@H](C)CNC[C@@H]5C)cc4)cnc23)c1 [Compound 104, 6-(4-((2R,6S)-2,6-dimethylpiperazin-1-yl)phenyl)-3-(3-(ethylsulfonyl)phenyl)pyrazolo[1,5-a]pyrimidine]
12 | 310 nM | 29 nM | 1400 nM and 560 nM and 1000 nM and 760 nM and 1500 nM and 310 nM and 830 nM | 13 nM | 4300 nM | 4200 nM | C[C@@H]1CNC[C@H](C)N1c1ccc(-c2cnc3c(-c4cccc(C(C)(C)O)c4)cnn3c2)cc1 [Compound 103, 2-(3-(6-(4-((2R,6S)-2,6-dimethylpiperazin-1-yl)phenyl)pyrazolo[1,5-a]pyrimidin-3-yl)phenyl)propan-2-ol]
13 | 35 nM | 16 nM | 26 nM | 5 nM | 183 nM | 2340 nM | CC(C)(CN1CCCCC1)Oc1ccc(-c2cnc3c(-c4cccc5c(C(N)=O)cccc45)cnn3c2)cc1 [Compound 18, 5-(6-(4-((2-methyl-1-(piperidin-1-yl)propan-2-yl)oxy)phenyl)pyrazolo[1,5-a]pyrimidin-3-yl)-1-naphthamide]
14 | 18 nM | 5 nM | 42 nM and 53 nM and 66 nM and 78 nM and 91 nM and 28 nM and 49 nM and 51 nM | 8 nM | 34 nM | 1070 nM | C[C@@H]1CNC[C@H](C)N1c1ccc(-c2cnc3c(-c4cccc5c(C(N)=O)cccc45)cnn3c2)cc1 [Compound 10, 5-(6-(4-((2S,6R)-2,6-dimethylpiperazin-1-yl)phenyl)pyrazolo[1,5-a]pyrimidin-3-yl)-1-naphthamide]
